pEC50: −log10 of the molar value.
What follows are molecules tested on RSV (Long) (assay: RSV cytopathic effect (CPE)-based viral replication assay). Details: HEp-2 cells infected with RSV Long at MOI 0.015; 3 days at 37° C.; cell viability by CellTiter-Glo luminescence; read-out: EC50 (nm).
Assay type: cell-based, respiratory syncytial virus (RSV)
In short: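 HEp-2 cells, 2,500 per well in DMEM with 2% heat-inactivated FBS, treated with 10-point compound dilutions and infected with RSV Long at MOI 0.015. After 3 days at 37 °C, 5% CO2, viability read by CellTiter-Glo luminescence; EC50 derived from CPE data.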
Work on `O=C1CC(c2c(Cn3c(=O)n(C4CC4)c4ccncc43)ncc3ccccc23)CN1` (centres unmarked) [Example 112c, 1-cyclopropyl-3-((4-(5-oxopyrrolidin-3-yl)isoquinolin-3-yl)methyl)-1H-imidazo[4,5-c]pyridin-2(3H)-one] yielded a pEC50 of 7.92.

Same assay, conditions: human respiratory syncytial virus, HEp-2, 72 h, HEp-2 cells infected with RSV Long at MOI 0.015; 3 days at 37° C.; cell viability by CellTiter-Glo luminescence; read-out: EC50 (nm)
Molecule `CNC1(C(=O)N2CC3(C2)C(=O)N(Cc2ncc4ccccc4c2-c2ccc(S(N)(=O)=O)nc2)c2ccccc23)CC1` [Example 123b, 5-(3-((1-(1-(methylamino)cyclopropanecarbonyl)-2′-oxospiro[azetidine-3,3′-indolin]-1′-yl)methyl)isoquinolin-4-yl)pyridine-2-sulfonamide] has a pEC50 of 7.82.
`CS(=O)(=O)N1CC2(C1)C(=O)N(Cc1ncc3ccccc3c1-c1ccc(C(F)(F)F)cc1)c1ccccc12` [Example 79, 1-(Methylsulfonyl)-1′-((4-(4-(trifluoromethyl)phenyl)isoquinolin-3-yl)methyl)spiro[azetidine-3,3′-indolin]-2′-one] gave a pEC50 of 8.06.
With `NC(=O)c1ccc(-c2c(CN3C(=O)C4(CCN(C(=O)[C@H]5CCCN5)CC4)c4ccncc43)ncc3ccccc23)cn1` [Example 2013] the pEC50 was 8.18.
With `CC1(n2c(=O)n(Cc3ncc4ccccc4c3-c3ccc(C4(N)COC4)nc3)c3cnccc32)CC1` [Example 2022] the pEC50 was 7.72.
`NC1(C(=O)N2CCC3(CC2)C(=O)N(Cc2ncc4ccccc4c2CCCCO)c2cnccc23)CC1` [Example 39b, 1-(1-Aminocyclopropanecarbonyl)-1′-((4-(4-hydroxybutyl)isoquinolin-3-yl)methyl)spiro[piperidine-4,3′-pyrrolo[2,3-c]pyridin]-2′(1′H)-one] gave a pEC50 of 7.46.
For `O=C(C1CCNCC1)N1CC2(C1)C(=O)N(Cc1ncc3ccccc3c1-c1cccnc1)c1ccccc12` [Example 149b, 1-(Piperidine-4-carbonyl)-1′-((4-(pyridin-3-yl)isoquinolin-3-yl)methyl)spiro[azetidine-3,3′-indolin]-2′-one], the pEC50 was 8.22.
With `O=c1n(Cc2ncc3ccccc3c2-c2cccc(CO)c2)c2cnccc2n1C1CC1` [Example 10, 1-Cyclopropyl-3-((4-(3-(hydroxymethyl)phenyl)isoquinolin-3-yl)methyl)-1H-imidazo[4,5-c]pyridin-2(3H)-one] the pEC50 was 6.62.
`COC(=O)N1CC2(C1)C(=O)N(Cc1ncc3ccccc3c1-c1ccnc(F)c1)c1ccccc12` [Example 95b, Methyl 1′-((4-(2-fluoropyridin-4-yl)isoquinolin-3-yl)methyl)-2′-oxospiro[azetidine-3,3′-indoline]-1-carboxylate] was tested, and the pEC50 was 8.74.
`NC1(C(=O)N2CC3(C2)C(=O)N(Cc2ncc4ccccc4c2-c2cncc(F)c2)c2ccccc23)CC1` [Example 94, 1-(1-aminocyclopropanecarbonyl)-1′-((4-(5-fluoropyridin-3-yl)isoquinolin-3-yl)methyl)spiro[azetidine-3,3′-indolin]-2′-one] was tested, and the pEC50 was 7.70.
Molecule `NCc1ccc2c(CCCCO)c(Cn3c(=O)n(C4CC4)c4ccccc43)ncc2c1` [Example 27] has a pEC50 of 7.77.
With `NC1(C(=O)N2CCC3(CC2)C(=O)N(Cc2ncc4ccccc4c2-c2cnc(C(F)(F)F)s2)c2cnccc23)CC1` [Example 2028] the pEC50 was 7.89.
`COC(=O)N1CCC(n2c(=O)n(Cc3ncc4cc(F)ccc4c3CCCCO)c3cnccc32)CC1` [Example 7b, Methyl 4-(3-((7-fluoro-4-(4-hydroxybutyl)isoquinolin-3-yl)methyl)-2-oxo-2,3-dihydro-1H-imidazo[4,5-c]pyridin-1-yl)piperidine-1-carboxylate] was tested, and the pEC50 was 7.96.
In the case of `O=c1n(Cc2ncc3ccccc3c2COCC(F)(F)F)c2cnccc2n1C1CC1` [Example 127, 1-Cyclopropyl-3-((4-((2,2,2-trifluoroethoxy)methyl)isoquinolin-3-yl)methyl)-1H-imidazo[4,5-c]pyridin-2(3H)-one], the pEC50 was 6.16.
`CNC1(C(=O)N2CC3(C2)C(=O)N(Cc2ncc4ccccc4c2-c2ccc(C#N)nc2)c2ccccc23)CC1` [Example 63, 5-(3-((1-(1-(Methylamino)cyclopropanecarbonyl)-2′-oxospiro[azetidine-3,3′-indolin]-1′-yl)methyl)isoquinolin-4-yl)picolinonitrile] was tested, and the pEC50 was 8.82.
Work on `COC(=O)N1CC2(C1)C(=O)N(Cc1ncc3ccccc3c1-c1ccc(N)nc1)c1ccccc12` [Example 104, methyl 1′-((4-(6-aminopyridin-3-yl)isoquinolin-3-yl)methyl)-2′-oxospiro[azetidine-3,3′-indoline]-1-carboxylate] yielded a pEC50 of 8.82.
`O=C1N(Cc2ncc3ccccc3c2-c2ccc(F)nc2)c2ccccc2C12CN(CCF)C2` [Example 86, 1-(2-fluoroethyl)-1′-((4-(6-fluoropyridin-3-yl)isoquinolin-3-yl)methyl)spiro[azetidine-3,3′-indolin]-2′-one] was tested, and the pEC50 was 7.70.
In the case of `CS(=O)(=O)N1CCC2(CC1)C(=O)N(Cc1ncc3ccccc3c1-c1cnc(C(N)=O)cn1)c1cnccc12` [Example 2017], the pEC50 was 7.47.
`N[C@H]1CCN(c2ccc3c(CCCCO)c(Cn4c(=O)n(C5CC5)c5ccncc54)ncc3c2)C1` [Example 33, (S)-3-((7-(3-aminopyrrolidin-1-yl)-4-(4-hydroxybutyl)isoquinolin-3-yl)methyl)-1-cyclopropyl-1H-imidazo[4,5-c]pyridin-2(3H)-one] showed a pEC50 of 5.89.
`NC1(C(=O)N2CCC3(CC2)C(=O)N(Cc2ncc4ccccc4c2-c2ccc(S(N)(=O)=O)cc2)c2cnccc23)CC1` [Example 2015] gave a pEC50 of 8.41.
In the case of `CC(C)(O)C(=O)N1CCC2(CC1)C(=O)N(Cc1ncc3ccccc3c1-c1cccnc1)c1cnccc12` [Example 138, 1-(2-hydroxy-2-methylpropanoyl)-1′-((4-(pyridin-3-yl)isoquinolin-3-yl)methyl)spiro[piperidine-4,3′-pyrrolo[2,3-c]pyridin]-2′(1′H)-one], the pEC50 was 8.44.
In the case of `NC1(c2ccc3c(CCCCO)c(Cn4c(=O)n(C5CC5)c5ccncc54)ncc3c2)COC1` [Example 46g, 3-((7-(3-Aminooxetan-3-yl)-4-(4-hydroxybutyl)isoquinolin-3-yl)methyl)-1-cyclopropyl-1H-imidazo[4,5-c]pyridin-2(3H)-one], the pEC50 was 5.07.
With `CS(=O)(=O)c1ccc(-c2c(Cn3c(=O)n(C4CC4)c4ccncc43)ncc3ccccc23)cc1` [Example 69d, 1-cyclopropyl-3-((4-(4-(methylsulfonyl)phenyl)isoquinolin-3-yl)methyl)-1H-imidazo[4,5-c]pyridin-2(3H)-one] the pEC50 was 8.24.
`N#Cc1ccc(-c2c(CN3C(=O)C4(CCN(C(=O)C(F)(F)F)CC4)c4ccncc43)ncc3ccccc23)cn1` [Example 66-2, 5-(3-((2′-Oxo-1-(2,2,2-trifluoroacetyl)spiro[piperidine-4,3′-pyrrolo[2,3-c]pyridin]-1′(2′H)-yl)methyl)isoquinolin-4-yl)picolinonitrile] was tested, and the pEC50 was 8.22.
`O=c1n(Cc2ncc3cccc(F)c3c2CCCCO)c2cnccc2n1C1CC1` [Example 31, 1-Cyclopropyl-3-((5-fluoro-4-(4-hydroxybutyl)isoquinolin-3-yl)methyl)-1H-imidazo[4,5-c]pyridin-2(3H)-one] gave a pEC50 of 6.85.

Same assay, conditions: human respiratory syncytial virus, HEp-2, 72 h, read-out: EC50 (nm)
For `CN1CC2(C1)C(=O)N(Cc1ncc3ccccc3c1CCCCO)c1ccccc12` [Example 41, 1′-((4-(4-Hydroxybutyl)isoquinolin-3-yl)methyl)-1-methylspiro[azetidine-3,3′-indolin]-2′-one], the pEC50 was 6.18.
